Reference: publication PMC9822352, “Design, Synthesis and Evaluation of New Multifunctional Benzothiazoles as Photoprotective, Antioxidant and Antiproliferative Agents” (Molecules, 2022)

Tests used:
[1] = Photostability study of 3% formulation (post-irradiation filtering parameters); conditions: 3% in formulation, post irradiation
Source text: To outline the efficacy and safety profile of a sunscreen formulation, it is essential to provide data relating to photostability. It is possible to provide photodegradation data by recording, pre- and post-irradiation, the transmittance of PMMA plates with finger-coat formulations subjected to a dose of UVA capable of causing erythema, according to the criteria of Garoli et al.. By means of Equations (2) and (3) it was possible to evaluate the residual percentage of SPF in vitro and of UVA-PF for all the prepared formulations. Of greatest interest are the values obtained for the derivatives BZTcin2 and BZTcin4.
To determine the photostability, the previously reported method was adopted, which consists in preparing each plate as mentioned above and subjecting it to solar irradiation quantified as the minimum dose of UVA equivalent to an effective radiant exposure of erythema. The protocol stipulates that, before and after exposure to sunlight, the transmission of the sun protection layer in the range of 290–400 nm is recorded.
Using Equations (2) and (3) below, the residual percentage of SPF in vitro (% SPFeff.) and UVA-PF (% UVA-PFeff.) have been obtained, which, if greater than or equal to 80, can classify a filter as photostable. %SPFeff. = in vitro SPFafter/in vitro SPFbefore × 100(2) %UVA − PFeff. = UVA − PFafter/UVA − PFbefore × 100(3)

[2] = In vitro filtering parameters of O/W sunscreen formulation containing 3% compound (modified Diffey-Robson, PMMA plates); conditions: 3% in formulation, before irradiation
Source text: All synthesized compounds were formulated at 3% and their photoprotective efficacy, determined by spectrophotometric measurements using the modified Diffey-Robson method, was compared with that of the lead compound PBSA (used at 3% in the same formulation) and using the base without active as a control (Table 2).
The synthesized compounds were incorporated at a concentration of 3% in a typical oil-in-water sunscreen formulation, to evaluate the filtering parameters, and have the following ingredient composition:
INCI (International Nomenclature Cosmetic Ingredients): aqua, glycerin, Euxyl PE 9010, xanthan gum, Tribehenin PEG-20 Esters, cetearyl alcohol, dicaprylyl carbonate, PPG-26-Buteth-26 (and) PEG-40 Hydrogenated Castor Oil (and) water, C12-C15 Alkyl Benzoate, and Sodium hydroxide (sol. 10%).
As previously reported the protocol indicates to spread 32.5 mg of each formulation on 25 cm^2 PMMA plates with the fingers. Each formulation was tested in triplicate, and five measurements were recorded for each dish, following a 15–30 min incubation in the dark at room temperature. UV transmittance data was recorded using a UV-VIS spectrophotometer in the range 290–400 nm. The blank plate, SPF, UVA-PF and critical wavelength were obtained by SPF Calculator software (version 2.1), Shimadzu, Milan, Italy).

[3] = FRAP (Ferric Reducing Antioxidant Power) assay; conditions: Trolox standard, 37 °C 10 min, 593 nm; mean ± SEM
Source text: The FRAP (Ferric Reducing Antioxidant Power) test allows the measurement of the ability of antioxidants to reduce ferric ion to ferrous. This method represents one of the simplest, quickest and least expensive methods for the determination of reducing properties on oxidized species in vitro.
The FRAP test (Ferric Reducing Antioxidant Power) is based on a colorimetric reaction and evaluates the ability of a sample of reducing ferric ions to ferrous ion while complexed with TPTZ (2,4,6-trispyridil-s-triazine). The FRAP solution was prepared from 0.1 M acetate buffer (pH 3.6), 10 mmol/L of TPTZ in 40 mM HCl, and 20 mM solution of FeCl3, with a 10:1:1 ratio, as described. Then, 1.9 mL of this solution was incubated with 0.1 mL of the sample solution at 37 °C for 10 min. The absorbance was read with a UV-Vis spectrophotometer at a 593 nm wavelength, relative to the maximum peak of absorbance of Fe^2+-TPTZ complex. Trolox® was used as a standard and the results are expressed as µmolTE/g.

[4] = DPPH radical scavenging test; conditions: compound at 1 mg/mL, 30 min, 517 nm; mean ± SEM
Protocol: The DPPH assay is widely used, and the simplest and fastest in vitro method for evaluating the antioxidant power of extracts or isolated compounds; it is based on the depletion of the 2,2-diphenyl-1-picrylhydrazyl radical (DPPH˙) by an antioxidant molecule with scavenger activity. This is an extremely sensitive test that can detect the activity of active ingredients present in very low concentrations.
The procedure used was adapted from Wang et al.. Briefly, 0.750 mL of a methanolic solution of each tested compound was treated with 1.5 mL of DPPH solution (0.004%) in MeOH. Samples were stored in the dark at room temperature for 30 min, and the absorbance value was read with a spectrophotometer at 517 nm, which is the maximum peak of absorbance relative to the DPPH radical absorption spectra. The values obtained were fitted into Equation (1) and converted to inhibition percentage (%) of the radical:DPPH inhibition percentage (%) = 100 × [1 − A1/A0](1) where A1 and A0 were, respectively, the absorbance recorded with and without the sample, which are directly proportional to DPPH residual concentration in the sample and DPPH concentration in the control (0.750 of MeOH and 1.5 mL of DPPH solution). […] A linear regression was performed to calculate the sample concentration able to eliminate 50% of DPPH free radicals.

[5] = UV spectra in solution (MeOH-DMSO): λmax and molar extinction coefficient; assay type: physicochemical; conditions: for ε (molar extinction coefficient): at λmax, Lambert-Beer equation, in M-1 cm-1 (unit assumed); for λmax: solution in MeOH-DMSO, 290–400 nm
Protocol: We next investigated the protective potential against UV radiation of each compound. Specifically, in vitro tests were conducted to determine the parameters related to absorption in the UV spectrum and those fundamental to the relative evaluation of the filtering potential and thus candidature as possible UV sunscreen ingredients of the candidates under examination, including λ critical and SPF (sun protection factor). Since the SPF is correlated to the UV quantitative absorption of the substances, the wavelength of maximum absorption (λmax) and the molar extinction coefficient (ε) of the derivatives in solution (MeOH-DMSO) were evaluated (Figures S1 and S2, Supplementary Materials). The UV spectra of the compounds BZTidr1–6 and BZTcin1–5 were recorded in the UVA-UVB range (290–400 nm) to evaluate their profile and compare it to that of the PBSA, a commercial UVB filter that has a λmax of 302 nm. After this peak, the absorbance of PBSA drops, reaching almost zero in the 325 nm range, and thus not providing absorption in the UVA region.
Once the λmax of each derivative was established, the molar extinction coefficient ε was calculated by applying the Lambert-Beer equation (Table S1, Supplementary Materials): the higher this value, the greater the ability of the compound under examination to absorb UV radiation. […] The excellent values of BZTidr1, BZTidr2 and BZTidr3 are ascribed to the aforementioned hyperchromic shift. In regard to the BZTcin1–5 series, the molar extinction coefficients calculated were very high, and the best values were those of BZTcin1, BZTcin2 and BZTcin3, also attributable to the hyperchromic shift of the absorption spectra. For both series, the excellent absorption capacity of ultraviolet radiation can be traced back to the high π-type conjugation that characterizes them.

HaCat keratinocytes = assay: Cell growth inhibition assay, HaCat; assay type: cell-based, human; conditions: Homo sapiens, HaCaT; 24 h incubation, cell count
Protocol: (§1) All synthesized compounds were tested in order to evaluate their in vitro antiproliferative activity. The human melanoma Colo-38 cell line was selected as a tumor skin model, while the immortalized human HaCaT keratinocytes were chosen as a control for the evaluation of the cytotoxicity towards non-cancerous cells and of the selectivity towards tumor cell lines. […] The selectivity index (SI) was also calculated and is the ratio between the IC50 of a given compound towards the non-cancerous cell line and the IC50 of the same compound towards the tumor cell line.
(§2) Cell growth inhibition assays were carried out using human melanoma Colo-38 cells and skin HaCat keratinocytes cells. Human melanoma Colo-38 cells were kindly provided by Dr. Patrizio Giacomini (Laboratory of Immunology, Regina Elena Institute, Rome, Italy). HaCat cells were kindly provided by Istituto Zooprofilattico Sperimentale della Lombardia e dell’Emilia Romagna, Brescia, Italy. Cell lines were seeded using concentrations of 40,000 cells/mL and 25,000 cells/mL, respectively. Colo-38 cells were maintained in RPMI 1640, supplemented with 10% fetal bovine serum (FBS), penicillin (100 Units mL^−1), and streptomycin (100 µg mL^−1). HaCat cells were maintained in DMEM, supplemented with 10% fetal bovine serum (FBS), penicillin (100 Units mL^−1), streptomycin (100 µg mL^−1) and glutamine (2 mM); the incubation was performed at 37 °C in a 5% CO2 atmosphere. Tested compounds were dissolved in MeOH/DMSO (1:1) to obtain 50 mM stock solutions and diluted before cell treatment in MeOH 100%. The tested compounds were added at serial dilutions to the cell cultures (from 0.1 to 100 µM) and incubated for 24 h further. Cells were then harvested, suspended in physiological solution, and counted with a Z2 Coulter Counter (Coulter Electronics, Hialeah, FL, USA). The cell number/mL and the IC50 values were determined when untreated cells were in the log phase of cell growth. Cells treated with vehicles and untreated cells were placed in each plate.

melanoma Colo-38 cells = assay: Cell growth inhibition assay, Colo-38; assay type: cell-based, human; conditions: Homo sapiens; 24 h incubation, cell count
Protocol: as §1, §2

| melting point [°C] | ε (molar extinction coefficient) [5] | λmax [5] [nm] | IC50 (melanoma Colo-38 cells) [µM] | SMILES | SPF [1] | UVA/UVB [1] | UVAPF [1] | λc [1] [nm] | SPF [2] | UVA/UVB [2] | UVAPF0 [2] | λc [2] [nm] | FRAP [3] [µmolTE/g] | DPPH (% Inhibition) [4] [%] | IC50 (HaCat keratinocytes) [µM] |
| --- | --- | --- | --- | --- | --- | --- | --- | --- | --- | --- | --- | --- | --- | --- | --- |
| 208 to 215 | 29641.85 | 333.1 |  | COc1ccc(/C=N/NC(=O)c2nc3ccccc3s2)cc1 [BZTidr3, (E)-N′-(4-methoxybenzylidene)benzo[d]thiazole-2-carbohydrazide] | 1.31 | 1.11 | 1.41 | 387 | 1.31 | 1.11 | 1.44 | 387 | 273.99 ± 10.12 | 24.25 ± 1.38 |  |
| > 280 | 22183.99 | 346.2 | 92.9 ± 1.62 | O=C(N/N=C/c1ccc(O)c(O)c1)c1nc2ccccc2s1 [BZTidr4, (E)-N′-(3,4-dihydroxybenzylidene)benzo[d]thiazole-2-carbohydrazide] | 1.63 | 1.05 | 1.64 | 389 | 1.53 | 1.05 | 1.65 | 389 |  | >90.00 | > 100 |
